Source: patent US20060241108A1, “Substituted phenoxazines and acridones as inhibitors of AKT” (St. Jude Children's Research Hospital, priority 2005, published 2006)

Experiments:
Rh18 cells = assay: Determination of apoptosis (Annexin V-FITC/propidium iodide flow cytometry), Rh18 cells; conditions: Rh18, 7.5 μM, four days, n = 3
Method: (§1) Determination of apoptosis. An ApoAlert™ Annexin V-FITC Apoptosis kit (available from Clontech, Palo Alto, Calif.) can be used to evaluate the extent of apoptosis within cell populations. Cells (Rh1: 350,000 per 75-cm^2 flask; Rh18: 800,000 per 75-cm^2 flask; or Rh30: 500,000 per 75-cm^2 flask) are preferably grown overnight in complete medium. On day 1, cells are treated with DMSO (0.1%; vehicle control) or with a test compound (e.g., a phenoxazine or acridone compound). After 4 days, the cells are trypsinized, washed with PBS, and resuspended in 200 μl of binding buffer. Cells are then incubated with 10 μl of annexin V-FITC (final concentration, 1 μg/ml) and 500 ng of propidium iodide in a final volume of 410 μl. Cells are preferably incubated at room temperature in the dark for ten minutes before flow cytometric analysis with an FACSCalibur™ Flow Cytometry System (Becton Dickinson, San Jose, Calif.).
(§2) For instance, Rh1, Rh18 and/or Rh30 cells can be grown in complete medium with 0.1% DMSO (as a negative control) or with one or more test compounds, e.g., any of the phenoxazine compounds listed in Table I, above, including but not limited to the compounds 10B, 11B, 13B, 14B or 15B. […] Cells are then harvested, and the extent of apoptosis evaluated, e.g., by an ApoAlert™ (Clontech, Palo Alto, Calif.) flow cytometric assay.

Rh30 cells = assay: Determination of apoptosis (Annexin V-FITC/propidium iodide flow cytometry), Rh30 cells; conditions: Rh30, 7.5 μM, four days, n = 3
Method: as §1, §2

endogenous AKT = assay: Cellular AKT kinase activity: AKT immunoprecipitated from treated Rh1 cells phosphorylates GSK-3 fusion protein; type: cell-based, human; conditions: 5 μM, 1 hour, IGF-I 10 minutes
Method: Determination of cellular AKT kinase activity. AKT kinase activity can be quantitated using a commercial assay kit (available from Cell Signaling Technology, Beverly, Mass.) according to the manufacturer's instructions. Specifically, Rh1 cells are seeded in serum-free medium at a density of 4×10^6 per 10-cm plate. […] Cells are then stimulated with ±IGF-I ([…]) for 10 minutes and washed once with ice-cold PBS. Cells are lysed in 200 μl of ice-cold 1× lysis buffer (20 mM Tris, pH 7.5; 150 mM NaCl; 1 mM EDTA; 1 mM EGTA; 1% Triton X-100; 2.5 mM sodium pyrophosphate; 1 mM β-glycerol phosphate; 1 mM Na3VO4; 1 mM phenylmethylsulfonyl fluoride; and 1 mM leupeptin) and incubated for 10 minutes on ice. The cell lysates are then centrifuged for 10 minutes at 17,500×g at 4° C. Volumes of the supernatants are preferably adjusted so that each sample contains an equal amount of protein (150 μg). The supernatants are then incubated with immobilized (cross-linked) anti-AKT antibody (Cell Signaling Technology, Beverly, Mass., catalog # 9279) for 3 hours at 4° C. […]
To determine directly whether compounds, such as the phenoxazine compounds in Table I, inhibit AKT activation in cells, the activation of AKT by IGF-I can be evaluated by assessing either phosphorylation of AKT (Ser473), or the in vitro kinase activity of protein immunoprecipitated by anti-AKT antibody. […]

Compound | Percentage of cells ± SD, Apoptotic (Rh18 cells) | Percentage of cells ± SD, Apoptotic (Rh30 cells) | phosphorylation of GSK-3 fusion protein by AKT immunoprecipitated from treated cells (endogenous AKT) | Percentage of cells ± SD, Viable (Rh18 cells) | Percentage of cells ± SD, Viable (Rh30 cells)
10-[4′-[(β-hydroxyethyl)piperazino]butyl]-2-chlorophenoxazine [Compound 15B] | 32.70 ± 8.99% | 88.67 ± 1.69% | completely inhibited |  | 
CCN(CC)CCCCN1c2ccccc2Oc2ccc(Cl)cc21 [Compound 10B, 10-[4′-(N-diethylamino)butyl]-2-chlorophenoxazine] | 34.33 ± 6.13% | 43.00 ± 2.17% | completely inhibited | 65.00 ± 2.94% | 56.67 ± 2.62%
